In ChEMBL document CHEMBL5036306 (J Med Chem, 2021):
Active and inactive are the calls of the source. The calls are words filed in the database; no cut-off is given here.

What was measured:
[1] = target: Histone deacetylase 1 (Homo sapiens, UniProt Q13547); assay: Inhibition of recombinant HDAC1 (unknown origin) using Boc-Lys(Ac)-AMC as substrate pre-incubated for 1 hr followed by substrate addition and measured after 2 hrs by fluorescence based assay
[2] = target: Histone deacetylase 2 (Homo sapiens, UniProt Q92769); assay: Inhibition of recombinant HDAC2 (unknown origin) using Boc-Lys(Ac)-AMC as substrate pre-incubated for 1 hr followed by substrate addition and measured after 2 hrs by fluorescence based assay
Chain of Histone deacetylase 2 (Q92769 whole entry): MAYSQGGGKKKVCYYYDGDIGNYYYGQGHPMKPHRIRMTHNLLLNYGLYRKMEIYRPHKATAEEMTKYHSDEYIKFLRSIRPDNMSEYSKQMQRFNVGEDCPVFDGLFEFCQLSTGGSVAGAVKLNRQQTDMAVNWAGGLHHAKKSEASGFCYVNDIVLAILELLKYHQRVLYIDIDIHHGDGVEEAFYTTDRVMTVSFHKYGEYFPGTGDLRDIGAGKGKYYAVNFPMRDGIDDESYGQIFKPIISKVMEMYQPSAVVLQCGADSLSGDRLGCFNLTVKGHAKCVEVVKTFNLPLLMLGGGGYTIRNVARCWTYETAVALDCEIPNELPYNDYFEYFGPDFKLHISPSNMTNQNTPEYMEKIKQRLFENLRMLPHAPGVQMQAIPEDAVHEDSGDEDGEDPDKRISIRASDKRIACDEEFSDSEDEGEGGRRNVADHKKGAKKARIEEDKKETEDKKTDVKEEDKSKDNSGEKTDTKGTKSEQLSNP

[3] = species: Homo sapiens; assay: Selectivity ratio of IC50 for recombinant HDAC2 (unknown origin) to IC50 for recombinant HDAC6 (unknown origin)
[4] = Antioxidant activity of compound assessed as trolox equivalent of AAPH radical scavenging activity at 2 to 4 uM preincubated for 15 mins followed by AAPH addition and measured every 2 mins for 90 mins by ORAC-fluorescein assay; format: functional; settings: dose 2-4 µM, time 105.0 min
[5] = target: Histone deacetylase 3 (Homo sapiens, UniProt O15379); assay: Inhibition of recombinant HDAC3 (unknown origin) using Boc-Lys(acetyl)-AMC as substrate preincubated for 1 hr followed by substrate addition and measured after 2 hrs by fluorescence based assay
Chain of Histone deacetylase 3 (O15379 whole entry): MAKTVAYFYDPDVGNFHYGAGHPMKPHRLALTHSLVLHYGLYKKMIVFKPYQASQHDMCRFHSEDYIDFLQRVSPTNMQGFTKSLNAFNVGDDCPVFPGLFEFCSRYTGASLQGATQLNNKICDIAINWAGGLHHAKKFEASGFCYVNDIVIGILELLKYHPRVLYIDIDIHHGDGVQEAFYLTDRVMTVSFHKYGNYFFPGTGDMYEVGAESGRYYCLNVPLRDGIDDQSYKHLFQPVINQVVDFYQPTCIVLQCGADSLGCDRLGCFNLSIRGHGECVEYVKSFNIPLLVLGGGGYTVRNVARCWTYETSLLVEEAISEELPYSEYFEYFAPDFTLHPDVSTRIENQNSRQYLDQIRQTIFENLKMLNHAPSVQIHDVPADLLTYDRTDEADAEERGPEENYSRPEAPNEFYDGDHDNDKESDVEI

[6] = species: Homo sapiens; assay: Selectivity ratio of IC50 for recombinant HDAC8 (unknown origin) to IC50 for recombinant HDAC6 (unknown origin)
[7] = species: Homo sapiens; assay: Selectivity ratio of IC50 for recombinant HDAC9 (unknown origin) to IC50 for recombinant HDAC6 (unknown origin)
[8] = target: T1, Protein deacetylase HDAC6 (Homo sapiens, UniProt Q9UBN7); assay: Inhibition of recombinant HDAC6 (unknown origin) using Boc-Lys(acetyl)-AMC as substrate preincubated for 1 hr followed by substrate addition and measured after 2 hrs by fluorescence based assay
T1 sequence (Q9UBN7 whole entry): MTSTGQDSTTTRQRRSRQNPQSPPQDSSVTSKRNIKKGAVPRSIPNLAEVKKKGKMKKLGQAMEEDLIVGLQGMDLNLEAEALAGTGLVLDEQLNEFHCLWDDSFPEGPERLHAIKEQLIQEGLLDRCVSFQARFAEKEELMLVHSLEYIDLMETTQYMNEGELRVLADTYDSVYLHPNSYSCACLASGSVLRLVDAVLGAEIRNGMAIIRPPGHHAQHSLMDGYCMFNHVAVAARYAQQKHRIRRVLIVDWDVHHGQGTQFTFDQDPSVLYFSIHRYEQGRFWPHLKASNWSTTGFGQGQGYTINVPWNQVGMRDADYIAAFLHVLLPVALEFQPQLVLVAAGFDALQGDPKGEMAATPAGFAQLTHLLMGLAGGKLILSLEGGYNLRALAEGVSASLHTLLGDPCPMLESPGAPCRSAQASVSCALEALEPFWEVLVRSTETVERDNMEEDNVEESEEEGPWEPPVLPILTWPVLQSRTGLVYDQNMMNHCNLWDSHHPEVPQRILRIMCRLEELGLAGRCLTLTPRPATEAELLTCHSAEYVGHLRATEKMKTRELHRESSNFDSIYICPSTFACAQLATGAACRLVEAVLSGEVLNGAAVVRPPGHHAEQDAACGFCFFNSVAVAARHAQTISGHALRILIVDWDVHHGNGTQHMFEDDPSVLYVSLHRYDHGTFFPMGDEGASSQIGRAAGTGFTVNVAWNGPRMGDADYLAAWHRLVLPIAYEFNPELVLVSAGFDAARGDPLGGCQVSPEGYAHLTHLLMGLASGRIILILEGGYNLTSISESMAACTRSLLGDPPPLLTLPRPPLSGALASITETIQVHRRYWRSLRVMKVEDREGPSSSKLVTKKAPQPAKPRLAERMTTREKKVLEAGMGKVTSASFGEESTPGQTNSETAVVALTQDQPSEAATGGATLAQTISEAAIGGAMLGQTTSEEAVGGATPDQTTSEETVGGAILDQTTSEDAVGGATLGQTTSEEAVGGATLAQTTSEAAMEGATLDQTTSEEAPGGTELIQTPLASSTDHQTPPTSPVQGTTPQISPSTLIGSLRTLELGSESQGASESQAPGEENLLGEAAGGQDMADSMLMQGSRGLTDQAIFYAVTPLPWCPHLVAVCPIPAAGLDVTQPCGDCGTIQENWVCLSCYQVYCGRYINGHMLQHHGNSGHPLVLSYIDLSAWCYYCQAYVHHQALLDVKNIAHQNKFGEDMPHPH

[9] = target: T2, Histone deacetylase 7 (Homo sapiens, UniProt Q8WUI4); assay: Inhibition of recombinant HDAC7 (unknown origin) using Boc-Lys(trifluoroacetyl)-AMC as substrate pre-incubated for 1 hr followed by substrate addition and measured after 2 hrs by fluorescence based assay
T2 sequence (Q8WUI4 whole entry): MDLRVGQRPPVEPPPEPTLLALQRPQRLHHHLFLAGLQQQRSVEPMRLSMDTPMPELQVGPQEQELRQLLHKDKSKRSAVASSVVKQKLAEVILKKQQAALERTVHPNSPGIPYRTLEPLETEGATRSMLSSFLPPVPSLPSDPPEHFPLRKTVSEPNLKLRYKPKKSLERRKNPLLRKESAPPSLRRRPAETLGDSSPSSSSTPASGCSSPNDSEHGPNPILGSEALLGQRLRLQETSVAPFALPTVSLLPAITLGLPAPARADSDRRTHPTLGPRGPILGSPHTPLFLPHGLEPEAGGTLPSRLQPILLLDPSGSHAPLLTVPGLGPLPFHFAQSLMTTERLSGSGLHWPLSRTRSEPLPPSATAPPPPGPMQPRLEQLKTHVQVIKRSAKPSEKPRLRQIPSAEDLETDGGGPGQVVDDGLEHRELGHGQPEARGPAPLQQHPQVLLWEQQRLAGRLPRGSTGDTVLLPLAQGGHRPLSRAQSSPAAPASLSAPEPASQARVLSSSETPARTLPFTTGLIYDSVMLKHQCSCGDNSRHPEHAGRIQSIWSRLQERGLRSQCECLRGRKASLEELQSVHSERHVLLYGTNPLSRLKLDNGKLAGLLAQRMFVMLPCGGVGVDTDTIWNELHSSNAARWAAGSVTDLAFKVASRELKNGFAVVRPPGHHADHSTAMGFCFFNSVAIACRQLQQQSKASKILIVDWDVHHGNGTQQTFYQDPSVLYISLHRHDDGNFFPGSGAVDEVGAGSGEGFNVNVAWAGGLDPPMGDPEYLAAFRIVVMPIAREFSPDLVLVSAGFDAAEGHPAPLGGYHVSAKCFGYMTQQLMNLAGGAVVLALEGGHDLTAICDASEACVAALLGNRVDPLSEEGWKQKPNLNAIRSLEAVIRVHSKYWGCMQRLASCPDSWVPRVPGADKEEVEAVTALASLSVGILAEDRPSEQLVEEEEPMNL

[10] = tested on: N9; assay: Immunomodulatory activity in LPS-induced mouse N9 microglial cells assessed as increase in TGF-beta2 expression at 0.1 to 5 uM incubated for 24 hrs by Western blot analysis; format: functional; settings: dose 0.1-5 µM
[11] = species: Homo sapiens; assay: Selectivity ratio of IC50 for recombinant HDAC3 (unknown origin) to IC50 for recombinant HDAC6 (unknown origin)

Chain of Histone deacetylase 1 (Q13547 whole entry): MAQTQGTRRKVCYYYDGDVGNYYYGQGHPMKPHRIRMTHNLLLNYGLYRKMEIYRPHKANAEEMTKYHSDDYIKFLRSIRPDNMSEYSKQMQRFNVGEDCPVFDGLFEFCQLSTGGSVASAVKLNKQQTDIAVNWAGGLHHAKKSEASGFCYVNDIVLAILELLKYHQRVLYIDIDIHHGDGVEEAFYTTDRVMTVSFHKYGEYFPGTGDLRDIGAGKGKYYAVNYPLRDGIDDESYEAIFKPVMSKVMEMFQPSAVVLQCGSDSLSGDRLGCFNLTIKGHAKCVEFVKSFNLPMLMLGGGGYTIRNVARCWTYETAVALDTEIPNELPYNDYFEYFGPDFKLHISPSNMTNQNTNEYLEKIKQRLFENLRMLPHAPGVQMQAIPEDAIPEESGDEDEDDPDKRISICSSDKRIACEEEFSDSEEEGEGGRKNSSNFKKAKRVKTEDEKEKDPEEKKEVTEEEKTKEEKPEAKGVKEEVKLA

Question: With `COc1ccc2c(c1)c(CCNC(C)=O)cn2Cc1ccc(C(=O)NO)cc1` as the compound, how does the IC50 [1] read?
Answer: Its IC50 is 0.262 µM.

Question: What about the IC50 [2] of the same compound?
Answer: Its IC50 is 0.336 µM.

Question: And the Ratio IC50 [3]?
Answer: The Ratio IC50 was 30.

Question: What about the ORAC antioxidant capacity (Trolox equivalents) [4] of the same compound?
Answer: Its ORAC antioxidant capacity (Trolox equivalents) is 1.6.

Question: What about the IC50 [5] of the same compound?
Answer: The IC50 was 0.641 µM.

Question: And the Ratio IC50 [6]?
Answer: The Ratio IC50 was 75.

Question: And the Ratio IC50 [7]?
Answer: Its Ratio IC50 is 32.

Question: And the IC50 [8]?
Answer: Its IC50 is 0.0112 µM.

Question: And the IC50 [9]?
Answer: Its IC50 is 1.65 µM.

Question: And the Activity [10]?
Answer: Its Activity is “inactive”.

Question: What about the Ratio IC50 [11] of the same compound?
Answer: Its Ratio IC50 is 57.

Question: With `COc1ccc2[nH]cc(CCN(Cc3ccc(C(=O)NO)cc3)C(=O)/C=C/c3ccc(O)c(OC)c3)c2c1` as the compound, how does the IC50 [1] read?
Answer: Its IC50 is 0.771 µM.

Question: And the IC50 [2]?
Answer: Its IC50 is 2.85 µM.

Question: And the Ratio IC50 [3]?
Answer: Its Ratio IC50 is 93.

Question: What about the ORAC antioxidant capacity (Trolox equivalents) [4] of the same compound?
Answer: Its ORAC antioxidant capacity (Trolox equivalents) is 2.1.

Question: And the IC50 [5]?
Answer: Its IC50 is 1.61 µM.

Question: What about the Ratio IC50 [6] of the same compound?
Answer: The Ratio IC50 was 117.

Question: What about the Ratio IC50 [7] of the same compound?
Answer: Its Ratio IC50 is > 326.

Question: What about the IC50 [8] of the same compound?
Answer: The IC50 was 0.0307 µM.

Question: What about the IC50 [9] of the same compound?
Answer: The IC50 was > 10 µM.

Question: And the Activity [10]?
Answer: Its Activity is “Active”.

Question: What about the Ratio IC50 [11] of the same compound?
Answer: Its Ratio IC50 is 53.
